“Also recorded” adds a separate entry of the source.
Experiments:
[1] = test system: p44/42 MAPK / Phos p44/42 MAPK in C2C12 cells; experiment: p44/42 MAPK:phos p44/42 MAPK ratio by immunocytochemistry, high-content imaging; type: cell-based, mouse; settings: C2C12, treated 30 minutes, 400 nM, 0.04 nM, FIG. 9
Description: (§1) Stimulation of AKT pathways and MAPK pathways in ellagic acid dihydrate, metformin, and insulin treated cell cultures was performed. Insulin stimulates glucose uptake into cells by increasing GLUT4 activation, and AKT, specifically phos-AKT, signaling alters GLUT4 translocation. […] Cellular assays were performed using mouse myoblast C2C12 cells. Relative protein levels of AKT:phos AKT and p44/42 MAPK:phos p44/42 MAPK were determined.
Serum starved cells (1 hr) were treated for 30 minutes with each of the tested compounds. Ratios of phosphorylated to non-phosphorylated proteins were determined using immunocytochemistry labeling (anti-AKT, anti-Phos AKT; or anti-p44/42 MAPK, anti-Phos p44/42 MAPK) on a high-content imaging system (Operetta, Perkin Elmer) using the fluorescent signal of anti-rabbit Alexa 647. Increased phosphorylation is indicated as decrease in signal of AKT:Phos AKT ratio (log2 scale) and p44/42 MAPK:Phos p44/42 MAPK ratio (log2 scale) relative to vehicle treated cells.

[2] = test system: AKT / Phos AKT in C2C12 cells; experiment: AKT:phos AKT ratio by immunocytochemistry, high-content imaging; type: cell-based, mouse; settings: C2C12, serum starved 1 hr, treated 30 minutes, 4 nM-4 μM, FIG. 8
Description: as §1, with “[…] Serum starved cells (1 hr) were treated for 30 minutes with each” for “Relative protein levels”, “the tested compounds.” for “AKT:phos AKT and p44/42 MAPK:phos p44/42 MAPK were determined.”

[3] = test system: MEF cells; experiment: Glucose uptake, 2-NBDG labeling, high-content imaging (Operetta), MEFs; type: cell-based, mouse
Description: Increased glucose uptake was indicated as increasing signal of 2-NBDG ([…]) in cells. Glucose uptake assays were carried out in a final incubation volume of 50 μl consisting of, 2-NBDG), (100 μM) in 1× Phosphate Buffered Saline w/Ca+, Mg+ (PBS++). The same buffer was used for washing cells. Insulin was used as a positive control. All testing compounds were prepared in 10% DMSO and diluted 1:100 for a final concentration of 0.1% DMSO (vehicle). Cells were culture to 70-90% confluence and then washed twice with PBS++. Cells were incubated for 30 minutes at 37° C. in PBS++. Nuclear stain, HCS CellMask stain (blue, Invitrogen), and/or testing compounds (ellagic acid dihydrate, insulin, or vehicle) were added. Cells were incubated for 30 min at 37° C. Cells were washed twice with PBS++and incubated with 2-NBDG for 10 minutes. Cells were washed thrice with PBS++and then imaged in PBS++. Alternatively, the final PBS wash was removed and cells were incubated with Accutase (Invitrogen) for 10 min at 37° C., neutralized with 10% FBS in 1× PBS, and analyzed by flow cytometry. An additional experiment was performed to measure glucose uptake in C2C12 cells exposed to metformin, insulin and ellagic acid dihydrate 2 (batch 2). FIG. 5C. Glucose uptake in ellagic acid dihydrate treated cell culture was measured and compared to glucose uptake under insulin or ellagic acid treatment. […] Flow cytometry results were run in triplicate with 1000 cells per batch.

[4] = test system: mouse embryonic fibroblasts (MEFs); experiment: Cytotoxicity: cell proliferation by automated cell counting (flow cytometry); type: cell-based; settings: 48 hr exposure, 4 μM-0.04 nM, changes not statistically significant (P>0.05)
Description: (§2) The cytotoxicity of ellagic acid dihydrate in in vitro cell culture was evaluated. Cellular assays were performed using mouse embryonic fibroblasts (MEFs). Cells were unexposed (No Treatment) or exposed to varying concentrations of ellagic acid dihydrate (4 μM-0.04 nM) or vehicle (0.1% DMSO) for 48 hrs. All assays were run in triplicate.
Cell proliferation rates were determined using automated cell counting of cells after 48 hr exposure to ellagic acid dihydrate in complete medium (DMEM w/10% FBS). Cell were then washed thrice with 1× PBS and incubated with Accutase (Invitrogen) for 10 min at 37° C., neutralized with 10% FBS in 1× PBS, and analyzed by flow cytometry. Cell concentrations were determined by cell counting (500-1000) on a flow cytometer (Accuri C6, BD Biosciences). The concentration of cells reflects the impact of ellagic acid dihydrate on the cell population numbers (cell death and cell proliferation).

[5] = test system: mouse embryonic fibroblasts (MEFs); experiment: Cytotoxicity: cell membrane integrity by propidium iodide (PI) labeling; type: cell-based; settings: 48 hr exposure
Description: as §2
Loss of cellular membrane integrity is an indication of cell death. Cell membrane integrity/cell toxicity was determined by adding propidium iodide (PI) to suspended cells prior to flow cytometry. PI is a red-fluorescent DNA stain that is excluded by live-healthy cells but will enter dead cells in a population. The presence of PI in 500-1000 cells per treatment group was determined by flow cytometry (Accuri C6, BD Biosciences). Cell with disrupted membranes, associated with cell death, are expected to be positively labeled with PI.

[6] = test system: mouse myoblast C2C12 cells; experiment: Glucose uptake, 2-NBDG labeling, flow cytometry, C2C12; type: cell-based
Description: Cellular assays were performed using mouse myoblast C2C12 cells and MEF cells. […] Increased glucose uptake was indicated as increasing signal of 2-NBDG ([…]) in cells. Glucose uptake assays were carried out in a final incubation volume of 50 μl consisting of, 2-NBDG), (100 μM) in 1× Phosphate Buffered Saline w/Ca+, Mg+ (PBS++). The same buffer was used for washing cells. Insulin was used as a positive control. All testing compounds were prepared in 10% DMSO and diluted 1:100 for a final concentration of 0.1% DMSO (vehicle). Cells were culture to 70-90% confluence and then washed twice with PBS++. Cells were incubated for 30 minutes at 37° C. in PBS++. Nuclear stain, HCS CellMask stain (blue, Invitrogen), and/or testing compounds (ellagic acid dihydrate, insulin, or vehicle) were added. Cells were incubated for 30 min at 37° C. Cells were washed twice with PBS++and incubated with 2-NBDG for 10 minutes. Cells were washed thrice with PBS++and then imaged in PBS++. Alternatively, the final PBS wash was removed and cells were incubated with Accutase (Invitrogen) for 10 min at 37° C., neutralized with 10% FBS in 1× PBS, and analyzed by flow cytometry. An additional experiment was performed to measure glucose uptake in C2C12 cells exposed to metformin, insulin and ellagic acid dihydrate 2 (batch 2). FIG. 5C.

O.O.O=c1oc2c(O)c(O)cc3c(=O)oc4c(O)c(O)cc1c4c23 [ellagic acid dihydrate]
p44/42 MAPK:Phos p44/42 MAPK ratio relative to vehicle treated cells [1]: increase in p44/42 MAPK | AKT:Phos AKT ratio (log2 scale) relative to vehicle treated cells [2]: increase in AKT relative to Phos-AKT signal | dose effect for increasing glucose uptake [3]: showed a dose effect | glucose uptake (signal of 2-NBDG) in comparison to vehicle [3]: showed an increase in glucose uptake | glucose uptake (2-NBDG signal) relative to vehicle treated or Insulin treated cells ([3]; data not shown): significantly greater | Cell proliferation [4]: trend toward increasing cell proliferation | Cell membrane integrity relative to the vehicle or untreated cells ([5]; 400 nM-0.4 nM, not statistically significant (P>0.05)): increased | Cell membrane integrity (% cells negative for PI) ([5]; 4000 nM): 95.40% | increase in glucose uptake in myoblasts relative to fibroblasts ([6]; C2C12 (FIGS. 5A, 5B) versus MEFs (FIGS. 4A, 4B)): ~4 × | increase in glucose uptake compared with metformin ([6]; C2C12, 4000 nm, FIG. 5C (batch 2)): greater increase in glucose uptake than metformin | dose effect for increasing glucose uptake ([6]; C2C12, flow cytometry, 4 μM-0.04 nM): showed a dose effect | glucose uptake (2-NBDG signal) relative to vehicle ([6]; C2C12, flow cytometry, FIG. 5A): significantly greater than vehicle treated | glucose uptake relative to insulin ([6]; myoblasts, at most concentrations tested, significant at 4 nM-4 μM, dihydrate): significantly more glucose uptake relative to insulin; also recorded: exceeded the uptake induced by insulin
